Measurements taken from ChEMBL document CHEMBL5303711, “ECBD screening data for assay EOS300108” (2023).
Active and inactive are the calls of the source. How the calls were made is not given here.

Assay: Cytotoxicity activity against human HepG2 cells assessed by CellTiter-Glo luminescent cell viability assay.
Format: toxicity, cell-based
Parameters: assay stage confirmatory assay, source tissue liver
Conditions: HepG2 cells, read-out: IC50 relative

Structure (SMILES)	CC50
COc1ccc(CNC(=O)C2CCN(S(=O)(=O)c3ccc4c(c3)CC(C)N4C(C)=O)CC2)cc1 (centres undefined)	29.7 µM (inactive)
CCN1CCN(CCCNC(=O)c2cc3c(=O)n(C)c4ccccc4c3s2)CC1	4.1 µM (active)
COc1ccc(C)cc1S(=O)(=O)N1CCCC(C(=O)N2CCN(c3ccccc3F)CC2)C1 (centres undefined)	9.9 µM (inactive)
Cc1c(Cl)sn(-c2ccc(Cl)cc2)c1=O	4.4 µM (active)
O=C(Nc1ccc(Cl)cc1)N1CCCN(Cc2ccc(F)cc2)C1	6.7 µM (active)
COc1ccccc1C(=O)Nc1ccccn1	8.4 µM (inactive)
COc1ccc(-c2noc(N3CCC(C(=O)NCCCN4CCC(C)CC4)CC3)n2)cc1	19.2 µM (inactive)
Cc1cc(Br)cc(C)c1OCCCCN(C)C	9.8 µM (active)
CCN(CC)CCNC(=O)C1CCN(c2nn3cc(-c4ccc(F)cc4)nc3s2)CC1	2 µM (active)
Cc1n[nH]c(C)c1S(=O)(=O)N1CCCC(C(=O)Nc2ccc(Br)cc2)C1 (centres undefined)	26.3 µM (inactive)
COc1cc(-c2noc(-c3ccc4c(c3)OCO4)n2)cc(OC)c1OC	0.1 µM (active)
COc1ccc(Nc2nc(NCCCO)c3ccccc3n2)cc1	8.2 µM (active)
COc1ccc(-c2cc3c4nn(CC(=O)Nc5ccccc5)c(=O)n4ccn3n2)cc1	50 µM (inactive)
COc1ccc(-c2cc3c4nn(CC(=O)Nc5cccc(OC)c5)c(=O)n4ccn3n2)cc1	50 µM (inactive)
CCCN1C(=O)COc2cc(-c3noc(C(=O)NC4CCN(Cc5ccccc5)CC4)n3)ccc21	15.2 µM (inactive)
COc1cccc(N2CCN(C(=O)C3CCN(c4nc5cccnc5n(C)c4=O)CC3)CC2)c1	4.4 µM (active)
O=S1(=O)C[C@H](NC2CCCC2)[C@@H](S(=O)(=O)c2cccs2)C1	16.1 µM (active)
Cc1cc(C)cc(NC(=O)CC2CCCN(c3cn[nH]c(=O)c3)C2)c1 (centres undefined)	2.4 µM (active)
O=C(c1ccc(F)cc1)N1CCN(Cc2noc(-c3ccc(F)cc3)n2)CC1	5.8 µM (active)
CCOc1ccccc1C(=O)N1CCN(c2ccccc2OCC)CC1	15.1 µM (inactive)
COc1ccc(C(=O)N2CCN(Cc3noc(-c4ccc(F)cc4)n3)CC2)cc1	4.5 µM (active)
c1ccc(CN2C[C@H]3CCNC[C@H]32)cc1	15.9 µM (inactive)
CCN1C(=O)COc2ccc(NC(=O)c3cc(-c4ccc5c(c4)OCCO5)on3)cc21	50 µM (inactive)
CCOc1ccc(C(=O)N2CCN(Cc3noc(-c4ccc(F)cc4)n3)CC2)cc1	4.8 µM (active)

Structure (SMILES)	CC50
COc1ccc(-c2cn3nc(N4CCCC(C(=O)NCCN5CCCC5)C4)sc3n2)cc1 (centres undefined)	5.1 µM (active)
Cc1ccc(-c2noc(-c3cccc(OCC(=O)N4CCN(C)CC4)c3)n2)cc1	6.3 µM (active)
CC(C)S(=O)(=O)N1CC(Oc2ccc(-c3noc(-c4ccncc4)n3)cc2)C1	19.7 µM (inactive)
COc1ccc(OCC(=O)N2CCN(S(=O)(=O)c3ccc4c(c3)NC(=O)C(C)O4)CC2)cc1 (centres undefined)	5.8 µM (active)
O=S1(=O)C[C@H](NC2CCCCC2)[C@@H](S(=O)(=O)c2ccc(Cl)cc2)C1	17 µM (active)
O=C(NCCN1CCCC1)C1CCN(c2nn3cc(-c4ccc(F)cc4)nc3s2)CC1	2.7 µM (active)
O=C(c1ccoc1)N1CCCN(Cc2ccc3c(c2)OCO3)c2ccccc21	20.4 µM (inactive)
CCN(CC)CCCNC(=O)C1CCN(c2nc3ccccc3n(Cc3ccccc3)c2=O)CC1	6.4 µM (active)
Cc1cccc(Cl)c1OCCN(C)CC1(C)COC1	50 µM (inactive)
Cc1cccc(NC(=O)C2CCN(S(=O)(=O)c3ccc4c(c3)CC(C)N4C(=O)C3CC3)CC2)n1 (centres undefined)	1.7 µM (active)
CCCc1nnsc1C(=O)Nc1nc2ccccc2[nH]1	19 µM (inactive)
O=C(Nc1nccs1)C1=C(c2ccccc2)S(=O)(=O)CCO1	7.7 µM (active)
CCOc1ccc(-n2ccnc(NCc3ccc(OC)c(OC)c3)c2=O)cc1	5.1 µM (active)
NCC1CN(CC2CC2)CC12CCCCC2 (centres undefined)	13.1 µM (inactive)
Cc1ccc(-c2cn3nc(N4CCC(C(=O)NCCCN5CCOCC5)CC4)sc3n2)cc1	5.1 µM (active)
CC(=O)N1c2ccc(S(=O)(=O)N3CCC(C(=O)NCc4cccs4)CC3)cc2CC1C (centres undefined)	33.9 µM (inactive)
Cc1ccc(-c2cnn3c(N4CCN(CCO)CC4)cc(C)nc23)cc1	8.9 µM (active)
CCC(C)NC(=O)COc1ccc(-c2nc(C(C)C)no2)cc1 (centres undefined)	4.2 µM (active)
COc1cc2c(cc1C(=O)Nc1ccccc1F)OCCCO2	13.8 µM (inactive)
Cc1cc2c(cc1S(=O)(=O)Nc1cccc(F)c1)OCC(=O)N2	28.3 µM (inactive)
CC(=O)N1CCCSc2ccc(S(=O)(=O)N3CCN(c4ccc(F)cc4)CC3)cc21	7.5 µM (active)
CCN(CC)CCCNC(=O)C1CCCN(c2ncc(-c3ccc(F)cc3)cn2)C1 (centres undefined)	10.9 µM (active)
CCCN1C(=O)COc2ccc(-c3csc(NC(=O)CC(C)C)n3)cc21	18 µM (inactive)
CCCCOc1cccc(C(=O)Nc2nc3c(s2)CN(C)CC3)c1	7.9 µM (active)

Structure (SMILES)	CC50
O=C(NCCN1CCCC1)C1CCN(c2ncccc2-c2nc(-c3ccccc3)no2)CC1	7.9 µM (active)
CCN1CCN(C(=O)C2CCCN(c3nn4cc(-c5ccc(OC)cc5)nc4s3)C2)CC1 (centres undefined)	12.8 µM (active)
CC(C)c1ccccc1OCC(=O)Nc1cccnc1	4 µM (active)
CCOc1ccc(S(=O)(=O)N2CC(C)CC(C)C2)cc1C (centres undefined)	17 µM (inactive)
CC1Oc2ccc(S(=O)(=O)N3CCN(C(=O)c4ccc(Br)cc4)CC3)cc2NC1=O (centres undefined)	4 µM (active)
CCCN1CCN(CCCNC(=O)C2CCN(c3nc(-c4ccc(OC)cc4)no3)CC2)CC1	13 µM (active)
CCCN(CCC)CCNC(=O)Cn1cnc2onc(-c3ccc(Cl)cc3)c2c1=O	5.9 µM (active)
O=C(CCC1CCCN(c2cc(NC3CC3)ncn2)C1)N1CCN(c2ccc(F)cc2)CC1 (centres undefined)	9.1 µM (active)
CCN(CC)CCNC(=O)C1CCN(c2nn3cc(-c4ccc(OC)cc4)nc3s2)CC1	2.7 µM (active)
CN(C)CCNc1oc(-c2ccc(S(=O)(=O)N3CCCCCC3)cc2)nc1C#N	18 µM (inactive)
CC1Oc2ccc(S(=O)(=O)N3CCN(C(=O)c4ccc(Cl)cc4)CC3)cc2NC1=O (centres undefined)	6.6 µM (active)
COc1ccc2c(c1)cc(C(=O)N[C@@H](C)C(=O)N1CCN(Cc3ccccc3)CC1)n2C	13.1 µM (inactive)
O=C(NCCCN1CCOCC1)C1CCN(c2nn3cc(-c4ccc(F)cc4)nc3s2)CC1	5.8 µM (active)
c1ccc(-c2cnn3c(-c4ccco4)ccnc23)cc1	0.5 µM (active)
CCCCN[C@H]1CS(=O)(=O)C[C@@H]1S(=O)(=O)c1ccc(Cl)cc1	9.3 µM (active)
COc1cccc(NC(=O)Nc2nc3ccc(S(C)(=O)=O)cc3s2)c1	18.1 µM (inactive)
CC(C)CN1CCN(Cc2nc(Cn3ccn4nc(-c5ccccc5)cc4c3=O)no2)CC1	13.6 µM (active)
CCS(=O)(=O)c1ncc(Cl)c(C(=O)Nc2ccc(OC)cc2)n1	2.6 µM (active)
CCc1ccc(-c2cc3c(=O)n(CC(=O)NCCN(CC)CC)ncn3n2)cc1	6.2 µM (active)
O=C(CN1C(=O)COc2ccc(S(=O)(=O)N3CCCC3)cc21)N1CCN(Cc2ccccc2)CC1	50 µM (inactive)
O=C(CCn1sc2ccccc2c1=O)NCCc1c[nH]c2ccccc12	5 µM (active)
Cc1cccnc1C(NC(=O)CCOc1ccccc1)C1CC1 (centres undefined)	36.5 µM (inactive)
O=S1(=O)C[C@H](NC2CCCC2)[C@@H](S(=O)(=O)c2ccc(Cl)cc2)C1	12.1 µM (active)
O=C(CN1C(=O)COc2ccc(S(=O)(=O)N3CCCCCC3)cc21)NCc1ccccc1	50 µM (inactive)

Structure (SMILES)	CC50
CCN1CCN(CCCNC(=O)c2cccc(NC(=O)c3nnc(COc4ccccc4)s3)c2)CC1	6.9 µM (active)
CCN(CC)S(=O)(=O)c1cccc(C(=O)Nc2cccc(F)c2)c1	10.4 µM (active)
Cc1cccc(-c2noc(-c3ccc(N4CCN(C)CC4)nc3)n2)c1	5 µM (active)
CCN(CC)CCCNC(=O)C1CCN(c2nn3cc(-c4ccc(OC)cc4)nc3s2)CC1	3 µM (active)
CC(=O)N1c2ccc(S(=O)(=O)N3CCC(C(=O)N4CC=C(c5ccccc5)CC4)CC3)cc2CC1C (centres undefined)	6.8 µM (active)
O=C(C1CCCC1)N1CC(Oc2ccc(-c3noc(C4CCOCC4)n3)cc2)C1	3.2 µM (active)
CN(CC(=O)NCCN1CCC(Cc2ccccc2)CC1)S(=O)(=O)c1cccc2nsnc12	9.1 µM (active)
O=C(NCCN1CCOCC1)C1CCN(c2nn3cc(-c4ccc(F)cc4)nc3s2)CC1	10.5 µM (active)
CC(=O)N1CCSc2ccc(S(=O)(=O)N3CCN(Cc4ccc5c(c4)OCO5)CC3)cc21	6.4 µM (active)
O=C(c1csc(S(=O)(=O)N2CCC(C(=O)N3CCc4ccccc43)CC2)c1)N1CCCCCC1	10.6 µM (inactive)
COc1ccc(-c2cn3nc(N4CCC(C(=O)NCCCN5CCN(C)CC5)CC4)sc3n2)cc1	4.1 µM (active)
CC1(C)Cc2c(sc(NC(=O)NCc3cccnc3)c2C(N)=O)CO1	12.4 µM (inactive)
COCCCN[C@H]1CS(=O)(=O)C[C@@H]1S(=O)(=O)c1ccc(Cl)cc1	16.7 µM (active)
Cc1ccc(Nc2nc(N3CCN(CCO)CC3)nc3c2cnn3C)cc1Cl	4.8 µM (active)
CN(C)CCNC(=O)c1ccc2c(c1)n(Cc1cccc(F)c1)c(=O)c1ccnn12	12.7 µM (active)
CN(C)CCOc1ccc2ccccc2c1Br	12 µM (active)
Cc1nn2c(ncc3c(=O)n(CCN(C)C)ccc32)c1-c1ccc(Cl)cc1	4 µM (active)
COc1ccc(-c2cc(C(=O)N3CCCCC3C)n[nH]2)cc1S(=O)(=O)N1CCCCC1 (centres undefined)	20.2 µM (inactive)
CCc1nc(-c2cc(S(=O)(=O)N3CCCC(C(=O)N4CCC(C)CC4)C3)c(C)s2)no1 (centres undefined)	7.9 µM (active)
CC(C)OCCCN[C@H]1CS(=O)(=O)C[C@@H]1S(=O)(=O)c1ccc(Cl)cc1	16 µM (active)
CCOc1ccccc1NC(=O)c1cnc2sc(N3CCOCC3)nn2c1=O	15.6 µM (inactive)
COc1cccc(Nc2nc(N3CCN(C)CC3)nc3c2cnn3C)c1	14 µM (inactive)
